Results taken from patent US20160219881A1, “HERBICIDALLY ACTIVE 2-HALOGEN-4-ALKYNYL-PHENYL-PYRAZOLIDINE-DIONE OR PYRROLIDINE-DIONE DERIVATIVES” (SYNGENTA LIMITED, priority 2013, published 2016).

Assays:
ZEAMX = test: Biological Example 3 (Test 2 glasshouse assay), post-emergence herbicidal activity; assay type: in vivo
Experimental: (§1) Seeds of a variety of monocotyledonous and dicotyledonous test plants are sown in standard soil in pots. The plants are cultivated for one day (for pre-emergence) or for about 12 days (range=10-13 days) (for post-emergence) under controlled conditions in a glasshouse (warm climate species at 24/18° C., cool climate species at 20/16° C., both at day/night; 16 hours light; 65% humidity). An “instant formulation”, known as the “IF50”, containing 50 g/litre (i.e. 5% w/v) of the “technical” (i.e. unformulated) active ingredient is prepared by dissolving the active ingredient in a mixture of organic solvents and emulsifier, details of which are provided in the Table below. This IF50 is then mixed with a small, variable amount of acetone to aid dissolution, before addition of a 0.2% v/v aqueous solution of the adjuvant X-77 (which is a mixture of alkyl aryl polyoxyethylene glycols and free fatty acids in isopropanol, CAS Registry number 11097-66-8), as the aqueous diluent, to form an aqueous spray solution which contains a predetermined concentration of the active ingredient (which varies depending on the application rate of the active ingredient to the plants) and 0.2% v/v of the adjuvant X-77. This aqueous spray solution is then sprayed onto the plants, after one day's cultivation (for pre-emergence) or after about 12 days' cultivation (for post-emergence). The test plants are then grown on, in a glasshouse (greenhouse) under controlled conditions (at either 24/18° C. or 20/16° C. (day/night) as mentioned above; 16 hours light; 65% humidity) and are watered twice daily. Either 15 days after application of the test compound (15 DAA) (for post-emergence), or 20 days after application of the test compound (20 DAA) (for pre-emergence), the test plants are evaluated visually, and an assessed percentage phytotoxicity score is given for each compound application on each plant species (where 100%=total damage to plant; 0%=no damage to plant).

[1] = tested on: Abutilon theophasti Medik. (ABUTH); test: Test 1A glasshouse assay, pre-emergence herbicidal activity; assay type: in vivo; settings: 312 h, 250 g/ha, 13 days after application, read-out: Pre-Emergence Herbicidal Activity (% Phytotoxicity) ABUTH
Experimental: (§2) Seeds of a variety of test species are sown in standard soil (usually sandy soil) in pots. After cultivation for one day (pre-emergence) or after 8 days cultivation (post-emergence) under controlled conditions in a glasshouse (at 24/16° C., day/night; 14 hours light; 65% humidity), the plants are sprayed with an aqueous spray solution derived from the formulation of the technical active ingredient (compound) in acetone/water (50:50) solution containing 0.5% Tween 20 (polyoxyethylene sorbitan monolaurate, CAS RN 9005-64-5). The test plants are then grown under controlled conditions in a glasshouse (at 24/16° C., day/night; 14 hours light; 65% humidity) and watered twice daily. 13 days after application of the test compounds, for pre- and post-emergence, the test is evaluated visually for percentage phytotoxicity to each plant (where 100%=total damage to plant; 0%=no damage to plant).
(§3) Alopecurus myosuroides (ALOMY), Setaria faberi (SETFA), Echinochloa crus-galli (ECHCG), Amaranthus retroflexus (AMARE), and Abutilon theophasti Medik. (ABUTH, common English name “velvetleaf”). Of these, Alopecurus myosuroides (ALOMY), Setaria faberi (SETFA), and Echinochloa crus-galli (ECHCG) are grassy monocotyledonous weeds.

Setaria faberi (SETFA) [2] = test: as above; assay type: in vivo; settings: 312 h, 250 g/ha, 13 days after application, read-out: Pre-Emergence Herbicidal Activity (% Phytotoxicity) SET FA
Experimental: as §2, §3

[3] = tested on: Amaranthus retroflexus (AMARE); test: as above; assay type: in vivo; settings: 312 h, 250 g/ha, 13 days after application, read-out: Pre-Emergence Herbicidal Activity (% Phytotoxicity) AMARE
Experimental: as §2, §3

POAAN = test: Biological Example 3 (Test 2 glasshouse assay), post-emergence herbicidal activity; assay type: in vivo, Poa annua
Experimental: as §1

[4] = tested on: Abutilon theophasti Medik. (ABUTH); test: Test 1A glasshouse assay, post-emergence herbicidal activity; assay type: in vivo; settings: 312 h, 13 days after application, read-out: Post-Emergence Herbicidal Activity (% Phytotoxicity) ABUTH
Experimental: as §2, §3

Setaria faberi (SETFA) [5] = test: as above; assay type: in vivo; settings: 312 h, 13 days after application, read-out: Post-Emergence Herbicidal Activity (% Phytotoxicity) SET FA
Experimental: as §2, §3

[6] = tested on: Amaranthus retroflexus (AMARE); test: as above; assay type: in vivo; settings: 312 h, 13 days after application, read-out: Post-Emergence Herbicidal Activity (% Phytotoxicity) AMARE
Experimental: as §2, §3

[7] = tested on: Alopecurus myosuroides (ALOMY); test: as above; assay type: in vivo; settings: 312 h, 13 days after application, read-out: Post-Emergence Herbicidal Activity (% Phytotoxicity) ALOMY
Experimental: as §2
(§4) Alopecurus myosuroides (ALOMY), Setaria faberi (SETFA), Echinochloa crus-galli (ECHCG), Amaranthus retroflexus (AMARE), and Abutilon theophasti Medik. (ABUTH, common English name “velvetleaf”). Of these, Alopecurus myosuroides (ALOMY), Setaria faberi (SETFA), and Echinochloa crus-galli (ECHCG) are grassy monocotyledonous weeds. […]

[8] = tested on: Echinochloa crus-galli (ECHCG); test: as above; assay type: in vivo; settings: 312 h, 13 days after application, read-out: Post-Emergence Herbicidal Activity (% Phytotoxicity) ECHCG
Experimental: as §2, §4

[9] = tested on: Winter Wheat (variety ‘Hereward’); test: Test 1B glasshouse assay, post-emergence phytotoxicity on winter wheat; assay type: in vivo; settings: Triticum aestivum, 312 h, 13 days after application, read-out: Post-Emergence Herbicidal Activity (% Phytotoxicity) Winter Wheat (variety ‘Hereward’)
Experimental: Seeds of the Winter Wheat variety ‘Hereward’ were sown in standard soil (usually sandy soil) in pots. After 8 days cultivation under controlled conditions in a glasshouse (at 24/16° C., day/night; 14 hours light; 65% humidity), which is post-emergence, the plants were sprayed with an aqueous spray solution derived from the formulation of the technical active ingredient (compound) in acetone/water (50:50) solution containing 0.5% Tween 20 (polyoxyethylene sorbitan monolaurate, CAS RN 9005-64-5). The test plants were then grown on in a glasshouse under controlled conditions (at 24/16° C., day/night; 14 hours light; 65% humidity) and watered twice daily. 13 days after application of the test compounds, the test was evaluated visually for percentage phytotoxicity to each plant (where 100%=total damage to plant; 0%=no damage to plant).

CC#Cc1cc(C)c(-c2c(OC(=O)C(C)(C)C)n(C)n(C)c2=O)c(C)c1 [Compound P1]
Post-Emergence Herbicidal Activity (Percentage Phytotoxicity) ZEAMX (ZEAMX; 8 g/ha (rate by row order)): 60% | Post-Emergence Herbicidal Activity (Percentage Phytotoxicity) ZEAMX (ZEAMX; 30 g/ha (rate by row order)): 70% | Post-Emergence Herbicidal Activity (Percentage Phytotoxicity) ZEAMX (ZEAMX; 125 g/ha (rate by row order)): 100% | inhibition at 250 g/ha [1]: 10% | inhibition at 250 g/ha (Setaria faberi (SETFA) [2]): 100% | inhibition at 250 g/ha [3]: 10% | Post-Emergence Herbicidal Activity (Percentage Phytotoxicity) POAAN (POAAN; 8 g/ha (rate by row order)): 0% | Post-Emergence Herbicidal Activity (Percentage Phytotoxicity) POAAN (POAAN; 30 g/ha (rate by row order)): 0% | Post-Emergence Herbicidal Activity (Percentage Phytotoxicity) POAAN (POAAN; 125 g/ha (rate by row order)): 70% | inhibition at 30 g/ha [4]: 30% | inhibition at 250 g/ha [4]: 70% | inhibition at 30 g/ha (Setaria faberi (SETFA) [5]): 70% | inhibition at 250 g/ha (Setaria faberi (SETFA) [5]): 90% | inhibition at 30 g/ha [6]: 0% | inhibition at 250 g/ha [6]: 20% | inhibition at 30 g/ha [7]: 80% | inhibition at 250 g/ha [7]: 90% | inhibition at 30 g/ha [8]: 80% | inhibition at 250 g/ha [8]: 100%

CC#Cc1cc(C)c(C2C(=O)C(Cc3ccccn3)N(C)C2=O)c(C)c1 (centres unmarked) [Compound A50, 3-(2,6-dimethyl-4-prop-1-ynyl-phenyl)-1-methyl-5-(2-pyridylmethyl)pyrrolidine-2,4-dione]
inhibition at 15.625 g/ha ([9]; 15.625 g/ha): 30% | inhibition at 62.5 g/ha ([9]; 62.5 g/ha): 70% | inhibition at 250 g/ha ([9]; 250 g/ha): 80% | inhibition at 15.625 g/ha ([7]; 15.625 g/ha): 30% | inhibition at 62.5 g/ha ([7]; 62.5 g/ha): 90% | inhibition at 250 g/ha [7]: 100% | inhibition at 15.625 g/ha ([8]; 15.625 g/ha): 80% | inhibition at 62.5 g/ha ([8]; 62.5 g/ha): 100% | inhibition at 250 g/ha [8]: 100%

CC#Cc1cc(C)c(-c2c(OC(=O)C(C)(C)C)n3n(c2=O)CCOCC3)c(C)c1 [Compound P4]
Post-Emergence Herbicidal Activity (Percentage Phytotoxicity) ZEAMX (ZEAMX; 8 g/ha (rate by row order)): 30% | Post-Emergence Herbicidal Activity (Percentage Phytotoxicity) ZEAMX (ZEAMX; 30 g/ha (rate by row order)): 90% | Post-Emergence Herbicidal Activity (Percentage Phytotoxicity) ZEAMX (ZEAMX; 125 g/ha (rate by row order)): 100% | inhibition at 250 g/ha [1]: 80% | inhibition at 250 g/ha (Setaria faberi (SETFA) [2]): 100% | inhibition at 250 g/ha [3]: 100% | Post-Emergence Herbicidal Activity (Percentage Phytotoxicity) POAAN (POAAN; 8 g/ha (rate by row order)): 50% | Post-Emergence Herbicidal Activity (Percentage Phytotoxicity) POAAN (POAAN; 30 g/ha (rate by row order)): 70% | Post-Emergence Herbicidal Activity (Percentage Phytotoxicity) POAAN (POAAN; 125 g/ha (rate by row order)): 90% | inhibition at 30 g/ha [4]: 70% | inhibition at 250 g/ha [4]: 70% | inhibition at 30 g/ha (Setaria faberi (SETFA) [5]): 70% | inhibition at 250 g/ha (Setaria faberi (SETFA) [5]): 100% | inhibition at 30 g/ha [6]: 0% | inhibition at 250 g/ha [6]: 10% | inhibition at 30 g/ha [7]: 70% | inhibition at 250 g/ha [7]: 90% | inhibition at 30 g/ha [8]: 100% | inhibition at 250 g/ha [8]: 100%

CC#Cc1cc(C)c(C2C(=O)N3CCCCCN3C2=O)c(C)c1 [Compound A23, 2-(2,6-dimethyl-4-prop-1-ynyl-phenyl)-6,7,8,9-tetrahydro-5H-pyrazolo[1,2-a]diazepine-1,3-dione]
Post-Emergence Herbicidal Activity (Percentage Phytotoxicity) ZEAMX (ZEAMX; 30 g/ha (rate by row order)): 0% | Post-Emergence Herbicidal Activity (Percentage Phytotoxicity) ZEAMX (ZEAMX; 125 g/ha (rate by row order)): 30% | inhibition at 250 g/ha [1]: 10% | inhibition at 250 g/ha (Setaria faberi (SETFA) [2]): 50% | inhibition at 250 g/ha [3]: 80% | Post-Emergence Herbicidal Activity (Percentage Phytotoxicity) POAAN (POAAN; 30 g/ha (rate by row order)): 10% | Post-Emergence Herbicidal Activity (Percentage Phytotoxicity) POAAN (POAAN; 125 g/ha (rate by row order)): 70% | inhibition at 250 g/ha [4]: 60% | inhibition at 250 g/ha (Setaria faberi (SETFA) [5]): 80% | inhibition at 250 g/ha [6]: 30% | inhibition at 250 g/ha [7]: 80% | inhibition at 250 g/ha [8]: 80%

CC#Cc1cc(C)c(C2C(=O)N(C)N(C)C2=O)c(C)c1 [Compound A1]
Post-Emergence Herbicidal Activity (Percentage Phytotoxicity) ZEAMX (ZEAMX; 30 g/ha (rate by row order)): 90% | Post-Emergence Herbicidal Activity (Percentage Phytotoxicity) ZEAMX (ZEAMX; 125 g/ha (rate by row order)): 100% | inhibition at 250 g/ha [1]: 0% | inhibition at 250 g/ha (Setaria faberi (SETFA) [2]): 30% | inhibition at 250 g/ha [3]: 0% | Post-Emergence Herbicidal Activity (Percentage Phytotoxicity) POAAN (POAAN; 30 g/ha (rate by row order)): 50% | Post-Emergence Herbicidal Activity (Percentage Phytotoxicity) POAAN (POAAN; 125 g/ha (rate by row order)): 80% | inhibition at 250 g/ha [4]: 10% | inhibition at 250 g/ha (Setaria faberi (SETFA) [5]): 40% | inhibition at 250 g/ha [6]: 0% | inhibition at 250 g/ha [7]: 0% | inhibition at 250 g/ha [8]: 40%
